One assay concerns the target T1, human VIPR2 (Homo sapiens, UniProt P41587).
T1 construct: host or cells: CHO-K1
T1 sequence (P41587 24-438): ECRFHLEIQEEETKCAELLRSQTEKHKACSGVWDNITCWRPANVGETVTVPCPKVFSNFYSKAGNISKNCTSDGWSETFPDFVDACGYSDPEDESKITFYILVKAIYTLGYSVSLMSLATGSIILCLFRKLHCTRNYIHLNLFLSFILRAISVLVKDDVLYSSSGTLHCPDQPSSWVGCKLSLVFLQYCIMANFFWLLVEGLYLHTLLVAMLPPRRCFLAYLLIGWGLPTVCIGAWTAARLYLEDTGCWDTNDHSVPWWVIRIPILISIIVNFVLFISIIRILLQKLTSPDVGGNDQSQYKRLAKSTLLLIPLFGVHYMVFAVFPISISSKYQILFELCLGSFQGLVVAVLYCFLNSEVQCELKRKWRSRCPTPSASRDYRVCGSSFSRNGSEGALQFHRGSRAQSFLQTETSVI
The assay can be described thus: HitHunter cAMP assay, agonist mode. Type of assay: cell-based. On the procedure:
Evaluation of antagonist activities of peptides against VIP-VIPR1, VIP-VIPR2, and PACAP-PAC1 signaling pathways and agonistic activity of KS-133 at VIPR2 was carried out by Eurofins DiscoverX (Fremont, CA, United States). Intracellular calcium mobilization was monitored using a calcium-sensitive dye loaded in CHO-K1 cells expressing human VIPR1 (ITEM 86-0030P-2243AN), VIPR2 (ITEM 86-0030P-2244AN), and PAC1 (ITEM 86-0030P-2066AN). The cells were preincubated with antagonistic peptides for 30 min at room temperature in the dark. After addition of the ligand at EC80, calcium mobilization was immediately monitored by FLIPR Tetra for 2 min. Cyclic AMP production in CHO-K1 cells expressing human VIPR2 was evaluated using HitHunter® cAMP assays (antagonist mode: ITEM 86-0007P-2362AN; agonist mode: ITEM 86-0007P-2362AG). […] Cells were lysed and the cAMP content of the cell lysate was determined by the β-galactosidase-based enzyme fragment complementation assay ([Eglen, 2002]). […]
FIGURE 3 Antagonistic/agonistic activities of peptides in the calcium influx and cAMP assays. […] In the calcium influx assay, after addition of ligand at EC80, calcium mobilization was monitored immediately (see details in the Methods section) (n = 4 wells for each treatment). […]
Next, antagonistic and agonistic activities of KS-133 at VIPR2 were evaluated by a cAMP assay. […]

Assay [1] relates to prefrontal pyramidal neurons. The assay can be described thus: Golgi-Cox dendritic morphology and Sholl analysis of prefrontal cortex neurons. Type of assay: in vivo, mouse. On the procedure: For behavioral experiments, all litters were randomly divided into Ro 25-1553- and PBS-treated groups. From P1 to P14, mice were injected s.c. once daily with Ro 25-1553 at a dose of 0.07 nmol/g ([Ago et al., 2015]). Mice treated with PBS from P1 to P14 were used as the control. KS-133 or the vehicle was simultaneously injected with Ro 25-1553 or PBS. Animals were weaned at P21 and divided by gender at P28. We used male mice exclusively to minimize any potential variability due to sex-specific effects on behavioral performance. […]
Dendritic morphological analysis was performed on mice after the novel object recognition test and samples were collected within 10 min of dissection. […] Morphologies of apical and basal dendrites were quantified in three dimensions using the Neurolucida neuron tracing system (MBF Bioscience, Williston, VT) with the experimenter blinded to the treatment. […]
FIGURE 6 Alterations in the dendritic morphology of prefrontal pyramidal neurons in mice treated with Ro 25-1553 and KS-133 during the early postnatal period. […] The number of intersections of dendrites with 7.5-μm concentric spheres centered on the soma was measured by Sholl analysis. Results are expressed as the mean ± S.E.M. of 40 neurons from five mice per group. *p < 0.05, **p < 0.01, ***p < 0.001.

SMILES strings stand for the structures. Where a SMILES comes first, the peptide text is derived from it. Bridges are numbered along the chain shown (N, C = ends). Some results are limits rather than exact numbers.

For `CC[C@H](C)[C@H](NC(=O)[C@H](CC(C)C)NC(=O)[C@@H]1CC(=O)NCCCC[C@@H]2NC(=O)[C@@H]3CCCN3C(=O)[C@H](CC(C)C)NC(=O)[C@H](Cc3ccc(O)cc3)NC(=O)[C@@H]3CCCN3C(=O)[C@@H]3CCCN3C(=O)[C@@H](NC(C)=O)CSSC[C@H](NC(=O)[C@H](CC(C)C)NC(=O)[C@H](Cc3ccc(O)cc3)NC2=O)C(=O)N1)C(N)=O` [KS-133, Ac-c[Cys-Pro-Pro-Tyr-Leu-Pro-c(Lys-Tyr-Leu-Cys]-Asp)-Leu-Ile-NH2] (Ac-CPPYLPKYLCDLI-NH2; disulfide 1-10; lactam 7-11), the “cAMP assay (nM) Agonistic activity VIPR2” value on human VIPR2 (agonist mode, CHO-K1 cells) is listed as >5,000 nM. The “VIPR2 agonist activity” value at human VIPR2 (cAMP assay, at high concentration of 5 μM) is given as “did not exhibit VIPR2 agonist activity”. Further, the “Effect on Ro 25-1553-induced changes in soma size, branch number and dendrite length” value in assay [1] (KS-133 simultaneously with Ro 25-1553, P1-14) is listed as “counteracted”. The “Sholl analysis, effect on Ro 25-1553-induced morphological abnormalities of apical and basal dendrites” value in assay [1] (KS-133 with Ro 25-1553, prefrontal cortex) is on record as “prevented the morphological abnormalities”.

Values taken from publication PMC8607231, “Generation of KS-133 as a Novel Bicyclic Peptide with a Potent and Selective VIPR2 Antagonist Activity that Counteracts Cognitive Decline in a Mouse Model of Psychiatric Disorders” (Frontiers in Pharmacology, 2021).
